Tested on: potassium channel
Test: potassium channel activating activity: reduction of potassium chloride-induced contractions of rat hepatic portal veins
Details: isolated hepatic portal veins, male Sprague-Dawley rats; Krebs solution, 37° C.; further 20 mmol of potassium chloride; isometric tension; read-out: IC50 (concentration of test substance producing a half-maximal reduction of the contractions caused by the potassium chloride)
Protocol: Hepatic portal veins are removed from male Sprague-Dawley rats and suspended in organ baths under an initial tension of 0.5 g for the isometric recording of tension. The veins are incubated in Krebs solution (consisting of 118 mM of sodium chloride, 25 mM of sodium hydrogen carbonate, 10.5 mM of D-glucose, 4.7 mM of potassium chloride, 0.4 mM of magnesium sulphate, 1.2 mM of potassium dihydrogen phosphate and 2.5 mM of calcium chloride) which is gassed with 95% oxygen and 5% carbon dioxide and maintained at 37° C. After incubation for 0.5 hour to 1 hour a further 20 mmol of potassium chloride is added followed after 0.25 hour to 0.5 hour by increasing concentrations of the test substance. The activity of the test substance is expressed as the IC50 value, which is the concentration of test substance producing a half-maximal reduction of the contractions caused by the potassium chloride.

| IC50 [nM] | SMILES |
| --- | --- |
| 280 ± 30 | CC1(C)Oc2ccc(C#N)cc2[C@@H](c2cccc[n+]2[O-])[C@@H]1O (racemic) [Compound F, rac-trans-2-(6-cyano-3,4-dihydro-3-hydroxy-2,2-dimethyl-2H-1-benzopyran-4-yl)pyridine N-oxide] |
| 160 ± 20 | CC1(C)CC(c2cccc[n+]2[O-])c2cc(C#N)ccc2O1 (centres unmarked) [Compound A, 2-(6-cyano-3,4-dihydro-2,2-dimethyl-2H-1-benzopyran-4-yl)pyridine N-oxide] |
| 14 ± 1 | CC1(C)CC(c2cccc[n+]2[O-])c2cc([N+](=O)[O-])ccc2O1 (centres unmarked) [Compound C, 2-(3,4-dihydro-2,2-dimethyl-6-nitro-2H-1-benzopyran-4-yl)pyridine N-oxide] |
| 560 ± 70 | CC(=O)c1ccc2c(c1)C(c1cccc[n+]1[O-])CC(C)(C)O2 (centres unmarked) [Compound D, 2-(6-acetyl-3,4-dihydro-2,2-dimethyl-2H-1-benzopyran-4-yl)pyridine N-oxide] |

Continued, compound first:

| SMILES | IC50 [nM] |
| --- | --- |
| CC1(C)C=C(c2cccc[n+]2[O-])c2cc(C#N)ccc2O1 [Compound B, 2-(6-cyano-2,2-dimethyl-2H-1-benzopyran-4-yl)pyridine N-oxide] | 38 ± 2 |
| CC1(C)C=C(c2ccc(-c3ccccc3)c[n+]2[O-])c2cc(C#N)ccc2O1 [Compound E, 2-(6-cyano-2,2-dimethyl-2H-1-benzopyran-4-yl)-5-phenylpyridine N-oxide] | 15 ± 0.5 |
| CCC1(C)C=C(c2cccc[n+]2[O-])c2cc(C#N)ccc2O1 (centres unmarked) [Compound G, 2-(6-cyano-2-ethyl-2-methyl-2H-1-benzopyran-4-yl)pyridine N-oxide] | 19 ± 1.2 |
| CC1(C)C=C(c2cc(C#N)ccc2O)c2cc(C#N)ccc2O1 [Compound H, 4-(5-cyano-2-hydroxyphenyl)-2,2-dimethyl-2H-1-benzopyran-6-carbonitrile] | 3100 ± 800 |
